Measurements taken from US20260347373A1, “HETEROCYCLIC COMPOUNDS, COMPOSITIONS THEREOF, AND METHODS OF TREATMENT THEREWITH” (BeOne Medicines I GmbH, priority 2023, published 2026).
Like-named read-outs stand apart in the source and are kept apart here.

Experiments:
[1] = molecular target: WT KRAS (Homo sapiens, UniProt P01116); assay: KRAS WT Probe Displacement Assay (TR-FRET, GDP-loaded); format: binding
Excerpt: (§1) The synthetic routes of probe 1 and 2, which have been disclosed in PCT/CN2022/070676, are hereby incorporated herein.

[2] = molecular target: KRAS G12D (Homo sapiens, UniProt P01116, G12D); assay: KRAS G12D Probe Displacement Assay (TR-FRET, GDP-loaded); format: binding
KRAS G12D, sequence (P01116 1-188 isoform P01116-2 G12D): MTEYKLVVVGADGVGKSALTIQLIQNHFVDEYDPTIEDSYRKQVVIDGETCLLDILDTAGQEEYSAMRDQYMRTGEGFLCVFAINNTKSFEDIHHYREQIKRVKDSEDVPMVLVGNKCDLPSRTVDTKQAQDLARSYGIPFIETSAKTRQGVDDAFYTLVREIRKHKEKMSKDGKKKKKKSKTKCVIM
Excerpt: as §1

[3] = KRAS WT, read-out: KRAS^WT Probe Displacement Assay IC50
[4] = KRAS G12D, read-out: KRAS^G12D Probe Displacement Assay IC50
[5] = KRAS^WT Probe Displacement Assay IC50, KRAS WT
[6] = KRAS^G12D Probe Displacement Assay IC50, KRAS G12D

WT KRAS, sequence (P01116 1-188 isoform P01116-2): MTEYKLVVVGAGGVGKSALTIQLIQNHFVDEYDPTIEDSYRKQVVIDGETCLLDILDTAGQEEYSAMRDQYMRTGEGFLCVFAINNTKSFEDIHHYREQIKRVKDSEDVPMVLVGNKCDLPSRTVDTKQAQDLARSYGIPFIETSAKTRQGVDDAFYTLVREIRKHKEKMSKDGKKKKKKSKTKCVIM

Row | SMILES | IC50 [1, 3] [nM] | IC50 [2, 4] [nM] | IC50 [1, 5] [nM] | IC50 [2, 6] [nM]
1 | Cc1cc(N)cc(-c2nc3c4c(nc(OCC5(CN6CCCC(C(F)(F)F)C6)CC5)nc4c2F)N2C[C@H]4CC[C@H](N4)[C@H]2CCO3)c1C(F)(F)F (stereo partly drawn) [Example 118, 3-((6aR,7S,10R)-1-fluoro-13-((1-((3-(trifluoromethyl)piperidin-1-yl)methyl)cyclopropyl)methoxy)-5,6,6a,7,8,9,10,11-octahydro-4-oxa-3,11a,12,14,15-pentaaza-7,10-methanocyclohepta [4,5]cycloocta [1,2,3-de]naphthalen-2-yl)-5-methyl-4-(trifluoromethyl)aniline] | 3 to 1000 | < 0.3 | – | –
2 | COC1CCCN(CC2(COc3nc4c5c(nc(-c6cc(N)cc(C)c6C(F)(F)F)c(F)c5n3)OCC[C@@H]3[C@@H]5CC[C@H](CN43)N5)CC2)C1 (stereo partly drawn) [Example 119, 3-((6aR,7S,10R)-1-fluoro-13-((1-((3-methoxypiperidin-1-yl)methyl)cyclopropyl)methoxy)-5,6,6a,7,8,9,10,11-octahydro-4-oxa-3,11a,12,14,15-pentaaza-7,10-methanocyclohepta [4,5]cycloocta[1,2,3-de]naphthalen-2-yl)-5-methyl-4-(trifluoromethyl) aniline] | – | – | 3 to 1000 | < 0.3
3 | Cc1cc(N)cc(-c2nc3c4c(nc(OCC5(CN6CCOC7(CC7)C6)CC5)nc4c2F)N2C[C@H]4CC[C@H](N4)[C@H]2CCO3)c1C(F)(F)F [Example 120, 3-((6aR,7S,10R)-13-((1-((4-oxa-7-azaspiro[2.5]octan-7-yl)methyl)cyclopropyl)methoxy)-1-fluoro-5,6,6a,7,8,9,10,11-octahydro-4-oxa-3,11a,12,14,15-pentaaza[7,10]methanocyclohepta [4,5]cycloocta[1,2,3-de]naphthalen-2-yl)-5-methyl-4-(trifluoromethyl)aniline] | 0.3 to 3 | < 0.3 | – | –
4 | Cc1cc(N)cc(-c2nc3c4c(nc(OCC5(CN6CCOC7(CCC7)C6)CC5)nc4c2F)N2C[C@H]4CC[C@H](N4)[C@H]2CCO3)c1C(F)(F)F [Example 121, 3-((6aR,7S,10R)-13-((1-((5-oxa-8-azaspiro[3.5]nonan-8-yl)methyl)cyclopropyl)methoxy)-1-fluoro-5,6,6a,7,8,9,10,11-octahydro-4-oxa-3,11a,12,14,15-pentaaza[7,10]methanocyclohepta [4,5]cycloocta[1,2,3-de]naphthalen-2-yl)-5-methyl-4-(trifluoromethyl)aniline] | 3 to 1000 | < 0.3 | – | –
5 | Cc1cc(N)cc(-c2nc3c4c(nc(OCC5(CN6CCC[C@H]6C)CC5)nc4c2F)N2C[C@H]4CC[C@H](N4)[C@H]2CCO3)c1C(F)(F)F [Example 122, 3-((6aR,7S,10R)-1-fluoro-13-((1-(((R)-2-methylpyrrolidin-1-yl)methyl)cyclopropyl)methoxy)-5,6,6a,7,8,9, 10,11-octahydro-4-oxa-3,11a,12,14,15-pentaaza-7,10-methanocyclohepta [4,5]cycloocta [1,2,3-de]naphthalen-2-yl)-5-methyl-4-(trifluoromethyl)aniline] | 3 to 1000 | < 0.3 | – | –
6 | Cc1cc(N)cc(-c2nc3c4c(nc(OCC5(CN6CCC[C@@H]6C)CC5)nc4c2F)N2C[C@H]4CC[C@H](N4)[C@H]2CCO3)c1C(F)(F)F [Example 123, 3-((6aR,7S,10R)-1-fluoro-13-((1-(((S)-2-methylpyrrolidin-1-yl)methyl)cyclopropyl)methoxy)-5,6,6a, 7,8,9,10,11-octahydro-4-oxa-3,11a,12,14,15-pentaaza-7,10-methanocyclohepta [4,5]cycloocta [1,2,3-de]naphthalen-2-yl)-5-methyl-4-(trifluoromethyl)aniline] | 3 to 1000 | < 0.3 | – | –
7 | COC1CN(C)CC(C)(COc2nc3c4c(nc(-c5cc(N)cc(C)c5C(F)(F)F)c(F)c4n2)OCC[C@@H]2[C@@H]4CC[C@H](CN32)N4)C1 (stereo partly drawn) [Example 126, 3-((6aR,7S,10R)-1-fluoro-13-((5-methoxy-1,3-dimethylpiperidin-3-yl)methoxy)-5,6,6a,7,8,9,10,11-octahydro-4-oxa-3,11a,12,14,15-pentaaza-7,10-methanocyclohepta[4,5]cycloocta[1,2,3-de]naphthalen-2-yl)-5-methyl-4-(trifluoromethyl)aniline] | 3 to 1000 | 0.3 to 3 | – | –
8 | Cc1cc(N)cc(-c2nc3c4c(nc(OC[C@@H]5OC[C@H]5N(C)C)nc4c2F)N2C[C@H]4CC[C@H](N4)[C@H]2CCO3)c1C(F)(F)F [Example 130, (2R,3R)-2-((((6aR,7S,10R)-2-(5-amino-3-methyl-2-(trifluoromethyl)phenyl)-1-fluoro-5,6,6a,7,8,9,10,11-octahydro-4-oxa-3,11a,12,14,15-pentaaza-7,10-methanocyclohepta[4,5]cycloocta [1,2,3-de]naphthalen-13-yl)oxy)methyl)-N,N-dimethyloxetan-3-amine] | 3 to 1000 | 0.3 to 3 | – | –
9 | Cc1cc(N)cc(-c2nc3c4c(nc(OC[C@]5(O)COC[C@H]5N(C)C)nc4c2F)N2C[C@H]4CC[C@H](N4)[C@H]2CCO3)c1C(F)(F)F [Example 131, (3R,4R)-3-((((6aR,7S,10R)-2-(5-amino-3-methyl-2-(trifluoromethyl)phenyl)-1-fluoro-5,6,6a,7,8,9,10,11-octahydro-4-oxa-3,11a,12,14,15-pentaaza-7,10-methanocyclohepta[4,5]cycloocta [1,2,3-de]naphthalen-13-yl)oxy)methyl)-4-(dimethylamino)tetrahydrofuran-3-ol] | 3 to 1000 | 0.3 to 3 | – | –
10 | Cc1cc(N)cc(-c2nc3c4c(nc(OCC5(F)COCC5N(C)C)nc4c2F)N2C[C@H]4CC[C@H](N4)[C@H]2CCO3)c1C(F)(F)F (stereo partly drawn) [Example 132, 4-((((6aR,7S,10R)-2-(5-amino-3-methyl-2-(trifluoromethyl)phenyl)-1-fluoro-5,6,6a,7,8,9,10,11-octahydro-4-oxa-3,11a,12,14,15-pentaaza-7,10-methanocyclohepta[4,5]cycloocta [1,2,3-de]naphthalen-13-yl)oxy)methyl)-4-fluoro-N,N-dimethyltetrahydrofuran-3-amine] | 3 to 1000 | 0.3 to 3 | – | –
11 | Cc1cc(N)cc(-c2nc3c4c(nc(OCC5(C(C)N(C)C)CC5)nc4c2F)N2C[C@H]4CC[C@H](N4)[C@H]2CCO3)c1C(F)(F)F (stereo partly drawn) [Example 135, 3-((6aR,7S,10R)-13-((1-(1-(dimethylamino)ethyl)cyclopropyl)methoxy)-1-fluoro-5,6,6a,7,8,9,10,11-octahydro-4-oxa-3,11a,12,14,15-pentaaza-7,10-methanocyclohepta[4,5]cycloocta [1,2,3-de]naphthalen-2-yl)-5-methyl-4-(trifluoromethyl)aniline] | 3 to 1000 | < 0.3 | – | –
12 | C[C@H](Oc1nc2c3c(nc(-c4cc(N)cc(Cl)c4C(F)(F)F)c(F)c3n1)OCC[C@@H]1[C@@H]3CC[C@H](CN21)N3)[C@@H]1CCCN1C [Example 140, 3-chloro-5-((6aR,7S,10R)-1-fluoro-13-((S)-1-((S)-1-methylpyrrolidin-2-yl)ethoxy)-5,6,6a,7,8,9,10,11-octahydro-4-oxa-3,11a,12,14,15-pentaaza-7,10-methano-cyclohepta[4,5]cycloocta [1,2,3-de]naphthalen-2-yl)-4-(trifluoromethyl)aniline] | 3 to 1000 | < 0.3 | – | –
13 | [2H]C([2H])([2H])N1CCC[C@H]1[C@H](C)Oc1nc2c3c(nc(-c4cc(N)cc(C)c4C(F)(F)F)c(F)c3n1)OCC[C@@H]1[C@@H]3CC[C@H](CN21)N3 [Example 141, 3-((6aR,7S,10R)-1-fluoro-13-((S)-1-((S)-1-(methyl-d3)pyrrolidin-2-yl)ethoxy)-5,6,6a,7,8,9,10,11-octahydro-4-oxa-3,11a,12,14,15-pentaaza-7,10-methano-cyclohepta[4,5]cycloocta [1,2,3-de]naphthalen-2-yl)-5-methyl-4-(trifluoromethyl)aniline] | 3 to 1000 | < 0.3 | – | –
14 | [2H]C([2H])([2H])N1CC[C@H](OC)[C@H]1[C@H](C)Oc1nc2c3c(nc(-c4cc(N)cc(C)c4C(F)(F)F)c(F)c3n1)OCC[C@@H]1[C@@H]3CC[C@H](CN21)N3 [Example 142, 3-((6aR,7S,10R)-1-fluoro-13-((S)-1-((2R,3S)-3-methoxy-1-(methyl-d3)pyrrolidin-2-yl)ethoxy)-5,6,6a,7,8,9,10,11-octahydro-4-oxa-3,11a,12,14,15-pentaaza-7,10-methano-cyclohepta[4,5]cycloocta [1,2,3-de]naphthalen-2-yl)-5-methyl-4-(trifluoromethyl)aniline] | 3 to 1000 | < 0.3 | – | –
15 | Cc1cc(N)cc(-c2nc3c4c(nc(O[C@@H](C)[C@@H]5CC6(CC6)CN5C)nc4c2F)N2C[C@H]4CC[C@H](N4)[C@H]2CCO3)c1C(F)(F)F [Example 143, 3-((6aR,7S,10R)-1-fluoro-13-((S)-1-((S)-5-methyl-5-azaspiro[2.4]heptan-6-yl)ethoxy)-5,6,6a,7,8,9,10,11-octahydro-4-oxa-3,11a,12,14,15-pentaaza[7,10]methanocyclohepta [4,5]cycloocta[1,2,3-de]naphthalen-2-yl)-5-methyl-4-(trifluoromethyl)aniline] | 3 to 1000 | < 0.3 | – | –
16 | Cc1cc(N)cc(-c2nc3c4c(nc(OCC5(CN6CCC(=C(F)F)CC6)CC5)nc4c2F)N2C[C@H]4CC[C@H](N4)[C@H]2CCO3)c1C(F)(F)F [Example 146, 3-((6aR,7S,10R)-13-((1-((4-(difluoromethylene)piperidin-1-yl)methyl)cyclopropyl)methoxy)-1-fluoro-5,6,6a,7,8,9,10,11-octahydro-4-oxa-3,11a,12,14,15-pentaaza-7,10-methano-cyclohepta[4,5]cycloocta [1,2,3-de]naphthalen-2-yl)-5-methyl-4-(trifluoromethyl) aniline] | – | – | 0.3 to 3 | < 0.3
